Test results from patent US20190055576A1, “USE OF HERBICIDE-TOLERANT PROTEIN” (BEIJING DABEINONG TECHNOLOGY GROUP CO., LTD., priority 2016, published 2019).

Experiments:
Type in all cases: in vivo
[1] = tested on: wild-type maize plants (CK2); experiment: Sulfometuron-methyl tolerance of wild-type maize plants, damage degree; conditions: 120 g ai/ha
Source text: (§1) The herbicide tolerance effects of Zm cytoplasmic ALT-1-02 maize plants, Zm chloroplastic ALT-1-02 maize plants, Zm cytoplasmic ALT-2-02 maize plants, Zm chloroplastic ALT-2-02 maize plants, Zm cytoplasmic ALT-3-02 maize plants, Zm chloroplastic ALT-3-02 maize plants and wild-type maize plants on Sulfometuron-methyl were detected (at V3-V4 stage), respectively.
Zm cytoplasmic ALT-1-02 maize plants, Zm chloroplastic ALT-1-02 maize plants, Zm cytoplasmic ALT-2-02 maize plants, Zm chloroplastic ALT-2-02 maize plants, Zm cytoplasmic ALT-3-02 maize plants, Zm chloroplastic ALT-3-02 maize plants and wild-type maize plants were respectively taken and sprayed with Sulfometuron-methyl (120 g ai/ha, 4-fold field concentration) and a blank solvent (water). The damage degree caused by the herbicide was measured for each plant according to the plant growth status 3 days after spraying (3 DAT), 7 days after spraying (7 DAT), 14 days after spraying (14 DAT) and 21 days after spraying (21 DAT), respectively: considering a growth status equivalent to that of the untreated plants as having a damage degree of 0%; considering conditions of leaves being partially chlorotic and yellow but substantially not affecting the plant normal growth as having a damage degree of 50%; and considering the whole plant being purple and dying as having a damage degree of 100%. There were 2 strains in Zm cytoplasmic ALT-1-02 maize plants in total (S13 and S14), 2 strains in Zm chloroplastic ALT-1-02 maize plants in total (S15 and S16), 2 strains in Zm cytoplasmic ALT-2-02 maize plants in total (S17 and S18), 2 strains in Zm chloroplastic ALT-2-02 maize plants in total (S19 and S20), 2 strains in Zm cytoplasmic ALT-3-02 maize plants in total (S21 and S22), 2 strains in Zm chloroplastic ALT-3-02 maize plants in total (S23 and S24), and 1 strain in wild-type maize plants (CK2) in total; and 10-15 plants were selected from each strain and tested.

[2] = tested on: transgenic soybean plants (Gm cytoplasmic/chloroplastic ALT-1-01, ALT-2-01, ALT-3-01); experiment: Sulfometuron-methyl tolerance of transgenic soybean plants, damage degree by leaf curl and growth point damage; conditions: 120 g ai/ha; for Average damage % 3DAT / Average damage % 7DAT / Average damage % 14DAT / Average damage % 21DAT: 4-fold field concentration; for Average damage % 3DAT: 3 days after spraying; for Average damage % 7DAT: 7 days after spraying; for Average damage % 14DAT: 14 days after spraying; for Average damage % 21DAT: 21 days after spraying
Source text: as §1, with “Gm” for “Zm”, “ALT-1-01 soybean” for “ALT-1-02 maize”, “ALT-2-01 soybean” for “ALT-2-02 maize”, “ALT-3-01 soybean” for “ALT-3-02 maize”, “soybean” for “maize”, “seedling” for “V3-V4”
(§2) Gm cytoplasmic ALT-1-01 soybean plants, Gm chloroplastic ALT-1-01 soybean plants, Gm cytoplasmic ALT-2-01 soybean plants, Gm chloroplastic ALT-2-01 soybean plants, Gm cytoplasmic ALT-3-01 soybean plants, Gm chloroplastic ALT-3-01 soybean plants and wild-type soybean plants were respectively taken and sprayed with Sulfometuron-methyl (120 g ai/ha, 4-fold field concentration) and a blank solvent (water). The damage degree caused by the herbicide was measured for each plant according to the leaf curl degree and the growth point damage degree 3 days after spraying (3 DAT), 7 days after spraying (7 DAT), 14 days after spraying (14 DAT) and 21 days after spraying (21 DAT), respectively: considering conditions of leaves being flat as the untreated plants and growth points being intact as having a damage degree of 0%; considering conditions of veins being locally browned, new leaves being malformed and plant growth being slow as having a damage degree of 50%; and considering conditions of veins being purple to whole plant being dead and growth points being browned and dry as having a damage degree of 100%. There were 2 strains in Gm cytoplasmic ALT-1-01 soybean plants in total (S1 and S2), 2 strains in Gm chloroplastic ALT-1-01 soybean plants in total (S3 and S4), 2 strains in Gm cytoplasmic ALT-2-01 soybean plants in total (S5 and S6), 2 strains in Gm chloroplastic ALT-2-01 soybean plants in total (S7 and S8), 2 strains in Gm cytoplasmic ALT-3-01 soybean plants in total (S9 and S10), 2 strains in Gm chloroplastic ALT-3-01 soybean plants in total (S11 and S12), and 1 strain in wild-type soybean plants (CK1) in total; and 10-15 plants were selected from each strain and tested.

[3] = tested on: wild-type soybean plants (CK1); experiment: Sulfometuron-methyl tolerance of wild-type soybean plants, damage degree; conditions: 120 g ai/ha
Source text: as §1, with “Gm” for “Zm”, “ALT-1-01 soybean” for “ALT-1-02 maize”, “ALT-2-01 soybean” for “ALT-2-02 maize”, “ALT-3-01 soybean” for “ALT-3-02 maize”, “soybean” for “maize”, “seedling” for “V3-V4”
as §2

[4] = strain S1 (Gm cytoplasmic ALT-1-01 soybean)
[5] = strain S2 (Gm cytoplasmic ALT-1-01 soybean)
[6] = strain S3 (Gm chloroplastic ALT-1-01 soybean)
[7] = strain S4 (Gm chloroplastic ALT-1-01 soybean)
[8] = strain S5 (Gm cytoplasmic ALT-2-01 soybean)
[9] = strain S6 (Gm cytoplasmic ALT-2-01 soybean)
[10] = strain S7 (Gm chloroplastic ALT-2-01 soybean)
[11] = strain S8 (Gm chloroplastic ALT-2-01 soybean)
[12] = strain S9 (Gm cytoplasmic ALT-3-01 soybean)
[13] = strain S10 (Gm cytoplasmic ALT-3-01 soybean)
[14] = strain S11 (Gm chloroplastic ALT-3-01 soybean)
[15] = strain S12 (Gm chloroplastic ALT-3-01 soybean)

**Q.** Which “Average damage % 3DAT” value ([1]; CK2 (wild-type maize), 4-fold field concentration, 3 days after spraying) does the source give for `COC(=O)c1ccccc1S(=O)(=O)NC(=O)Nc1nc(C)cc(C)n1` [Sulfometuron-methyl, 2-(4,6-dimethylpyrimidine-2-amino-formamido-sulfonyl) methyl benzoate] here?
**A.** 44%

**Q.** What about the “Average damage % 7DAT” value ([1]; CK2 (wild-type maize), 4-fold field concentration, 7 days after spraying) of the same compound?
**A.** 87%

**Q.** What about the “Average damage % 14DAT” value ([1]; CK2 (wild-type maize), 4-fold field concentration, 14 days after spraying) of the same compound?
**A.** 100%

**Q.** What about the “Average damage % 21DAT” value ([1]; CK2 (wild-type maize), 4-fold field concentration, 21 days after spraying) of the same compound?
**A.** 100%

**Q.** And the “herbicide tolerance of wild-type plants” value ([1]; wild-type maize plants)?
**A.** not tolerant

**Q.** What about the “Average damage % 3DAT” value [2, 4] of the same compound?
**A.** 6%

**Q.** And the “Average damage % 7DAT” value [2, 4]?
**A.** 0%

**Q.** What about the “Average damage % 14DAT” value [2, 4] of the same compound?
**A.** 0%

**Q.** What about the “Average damage % 21DAT” value [2, 4] of the same compound?
**A.** 0%

**Q.** What about the “Average damage % 3DAT” value [2, 5] of the same compound?
**A.** 7%

**Q.** What about the “Average damage % 7DAT” value [2, 5] of the same compound?
**A.** 0%

**Q.** What about the “Average damage % 14DAT” value [2, 5] of the same compound?
**A.** 0%

**Q.** And the “Average damage % 21DAT” value [2, 5]?
**A.** 0%

**Q.** And the “Average damage % 3DAT” value [2, 6]?
**A.** 0%

**Q.** And the “Average damage % 7DAT” value [2, 6]?
**A.** 0%

**Q.** And the “Average damage % 14DAT” value [2, 6]?
**A.** 0%

**Q.** What about the “Average damage % 21DAT” value [2, 6] of the same compound?
**A.** 0%

**Q.** And the “Average damage % 3DAT” value [2, 7]?
**A.** 0%

**Q.** What about the “Average damage % 7DAT” value [2, 7] of the same compound?
**A.** 0%

**Q.** What about the “Average damage % 14DAT” value [2, 7] of the same compound?
**A.** 0%

**Q.** And the “Average damage % 21DAT” value [2, 7]?
**A.** 0%

**Q.** And the “Average damage % 3DAT” value [2, 8]?
**A.** 6%

**Q.** And the “Average damage % 7DAT” value [2, 8]?
**A.** 0%

**Q.** And the “Average damage % 14DAT” value [2, 8]?
**A.** 0%

**Q.** What about the “Average damage % 21DAT” value [2, 8] of the same compound?
**A.** 0%

**Q.** What about the “Average damage % 3DAT” value [2, 9] of the same compound?
**A.** 5%

**Q.** What about the “Average damage % 7DAT” value [2, 9] of the same compound?
**A.** 0%

**Q.** And the “Average damage % 14DAT” value [2, 9]?
**A.** 0%

**Q.** And the “Average damage % 21DAT” value [2, 9]?
**A.** 0%

**Q.** And the “Average damage % 3DAT” value [2, 10]?
**A.** 0%

**Q.** What about the “Average damage % 7DAT” value [2, 10] of the same compound?
**A.** 0%

**Q.** What about the “Average damage % 14DAT” value [2, 10] of the same compound?
**A.** 0%

**Q.** What about the “Average damage % 21DAT” value [2, 10] of the same compound?
**A.** 0%

**Q.** What about the “Average damage % 3DAT” value [2, 11] of the same compound?
**A.** 0%

**Q.** And the “Average damage % 7DAT” value [2, 11]?
**A.** 0%

**Q.** What about the “Average damage % 14DAT” value [2, 11] of the same compound?
**A.** 0%

**Q.** And the “Average damage % 21DAT” value [2, 11]?
**A.** 0%

**Q.** What about the “Average damage % 3DAT” value [2, 12] of the same compound?
**A.** 8%

**Q.** What about the “Average damage % 7DAT” value [2, 12] of the same compound?
**A.** 0%

**Q.** What about the “Average damage % 14DAT” value [2, 12] of the same compound?
**A.** 0%

**Q.** What about the “Average damage % 21DAT” value [2, 12] of the same compound?
**A.** 0%

**Q.** And the “Average damage % 3DAT” value [2, 13]?
**A.** 7%

**Q.** And the “Average damage % 7DAT” value [2, 13]?
**A.** 0%

**Q.** What about the “Average damage % 14DAT” value [2, 13] of the same compound?
**A.** 0%

**Q.** What about the “Average damage % 21DAT” value [2, 13] of the same compound?
**A.** 0%

**Q.** And the “Average damage % 3DAT” value [2, 14]?
**A.** 0%

**Q.** What about the “Average damage % 7DAT” value [2, 14] of the same compound?
**A.** 0%

**Q.** And the “Average damage % 14DAT” value [2, 14]?
**A.** 0%

**Q.** And the “Average damage % 21DAT” value [2, 14]?
**A.** 0%

**Q.** What about the “Average damage % 3DAT” value [2, 15] of the same compound?
**A.** 0%

**Q.** What about the “Average damage % 7DAT” value [2, 15] of the same compound?
**A.** 0%

**Q.** And the “Average damage % 14DAT” value [2, 15]?
**A.** 0%

**Q.** And the “Average damage % 21DAT” value [2, 15]?
**A.** 0%

**Q.** What about the “herbicide tolerance conferred by the thifensulfuron hydrolase (ALT-1, ALT-2 and ALT-3)” value ([2]; transgenic soybean plants) of the same compound?
**A.** conferred a high level of Sulfometuron-methyl herbicide tolerance

**Q.** And the “Average damage % 3DAT” value ([3]; CK1 (wild-type soybean), 4-fold field concentration, 3 days after spraying)?
**A.** 49%

**Q.** And the “Average damage % 7DAT” value ([3]; CK1 (wild-type soybean), 4-fold field concentration, 7 days after spraying)?
**A.** 87%

**Q.** And the “Average damage % 14DAT” value ([3]; CK1 (wild-type soybean), 4-fold field concentration, 14 days after spraying)?
**A.** 100%

**Q.** And the “Average damage % 21DAT” value ([3]; CK1 (wild-type soybean), 4-fold field concentration, 21 days after spraying)?
**A.** 100%

**Q.** What about the “herbicide tolerance of wild-type plants” value ([3]; wild-type soybean plants) of the same compound?
**A.** not tolerant
